This is an account of results in US11607466B2, “Tumor and immune cell imaging based on PD-L1 expression” (The Johns Hopkins University, priority 2016, dated 2023).

The target of data set [1] is T1, hPD-L1 tumors (Homo sapiens, UniProt Q9NZQ7).
T1 construct: expressed in transfected cells; grown as tumours in NSG mice for the in vivo units
Briefly: in vivo. The arrangement: species or system mouse. The protocol: (§1) 1.4.10. Animal Models: Animal studies were performed according to the protocols approved by the JHU Animal Care and Use Committee (ACUC). Six-to-eight week old, female, non-obese diabetic severe-combined immunodeficient gamma (NSG) mice were obtained from the JHU Immune Compromised Animal Core. Mice were implanted subcutaneously in opposite sides of the upper flanks with 10×10^6 of CHO-PDL1 and CHO cells. […] 1.4.12. […] For the blocking study, mice were co-injected with 2 mg/kg (50 μg) of unmodified peptide with the radiotracer. The percentage of injected dose per gram of tissue (% ID/g) values were calculated based on signal decay correction and normalization to external [^64Cu] standards, which were measured in triplicate. Biodistribution data shown is mean±the standard error of the mean (SEM).

A further data set is described as follows: in vivo. To be noted: female, mouse, in vivo, iv, 40 uCi, total radioactivity, radioactivity uptake. More on the design: species or system mouse. The protocol:
as §1

The target of data set [2] is T2, PD-L1 in A549-iPDL1 tumors (Homo sapiens, UniProt Q9NZQ7).
T2 construct: expressed in transfected cells; host or cells: A549 NSCLC cells, lentiviral pINDUCER20, G418-selected, doxycycline-induced; as xenografts for the in vivo unit
T2 sequence (Q9NZQ7 19-290): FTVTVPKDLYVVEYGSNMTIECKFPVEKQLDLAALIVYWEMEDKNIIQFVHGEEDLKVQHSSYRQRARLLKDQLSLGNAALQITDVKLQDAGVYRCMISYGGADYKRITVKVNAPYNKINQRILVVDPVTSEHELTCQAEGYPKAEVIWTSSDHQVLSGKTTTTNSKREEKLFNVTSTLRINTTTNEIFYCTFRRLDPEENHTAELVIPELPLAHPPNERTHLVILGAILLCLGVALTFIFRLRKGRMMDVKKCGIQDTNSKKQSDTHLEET
Briefly: [64Cu]WL12 PET and biodistribution in A549-iPDL1 and A549 xenografts. The data set is classed as in vivo. As to conditions: 72 h of doxycycline treatment. An excerpt: To do so, an A549 NSCLC cell line with doxycycline-inducible PD-L1 expression (A549-iPD-L1) was generated. A549 is a Kras G12S lung adenocarcinoma cell line that expresses low PD-L1 at baseline. It has been transduced with PD-L1 in the all-in-one lentivirus pINDUCER20 vector (Meerbrey, et al., 2011), selected with G418, confirmed for PD-L1 induction by flow cytometry (FIG. 37A) and used for in vitro and in vivo studies. Cy5-PD-L1-mAbs binding to doxycycline-treated A549-iPDL1 cells was blocked by WL12 validating the specificity of WL12 (FIG. 37B). […] Accordingly, it is expected that PET will play a key role in quantifying dynamic changes in PD-L1 expression within the standard clinical work flow, providing a novel way to inform therapy decisions.

The target of data set [3] is T3, PD-L1 in A549-iPDL1 cells (Homo sapiens, UniProt Q9NZQ7).
T3 construct: expressed in transfected cells; host or cells: A549 NSCLC cells, lentiviral pINDUCER20, G418-selected, doxycycline-induced
T3 sequence (Q9NZQ7 19-290): as above
Briefly: Binding studies in doxycycline-inducible A549-iPDL1 cells. The data set is classed as cell-based. The text has this: To do so, an A549 NSCLC cell line with doxycycline-inducible PD-L1 expression (A549-iPD-L1) was generated. A549 is a Kras G12S lung adenocarcinoma cell line that expresses low PD-L1 at baseline.

Data set [4] addresses T1, hPD-L1 tumors. Briefly: PET-CT imaging of [64Cu]WL12 in mice with hPD-L1 and CHO tumors. The data set is classed as in vivo, mouse. As for the experimental part: 1.4.10. Animal Models: Animal studies were performed according to the protocols approved by the JHU Animal Care and Use Committee (ACUC). Six-to-eight week old, female, non-obese diabetic severe-combined immunodeficient gamma (NSG) mice were obtained from the JHU Immune Compromised Animal Core. Mice were implanted subcutaneously in opposite sides of the upper flanks with 10×10^6 of CHO-PDL1 and CHO cells. […] 1.4.11. […] Mice were maintained at 1% Isofluorane levels during imaging. PET images were acquired in two bed positions at 10 min/bed in an ARGUS small-animal PET/CT scanner (Sedecal, Madrid, Spain). A CT scan (512 projections) was performed at the end of each PET scan for anatomical co-registration. PET data were reconstructed using the two-dimensional ordered subsets-expectation maximization algorithm (2D-OSEM) and corrected for dead time and radioactive decay. The % ID per cc values were calculated based on a calibration factor obtained from a known radioactive quantity. Final data visualization and image generation was accomplished using Amira® (FEI, Hillsboro, Oreg.).

The next data set deals with T4, PD-L1 in hPD-L1 cells (Homo sapiens, UniProt Q9NZQ7).
T4 construct: expressed in transfected cells; grown as tumours in NSG mice for the in vivo units
T4 sequence (Q9NZQ7 19-290): as above
Briefly: In vitro binding of [64Cu]WL12 to hPD-L1 and CHO cells. It counts as cell-based. As for the experimental part:
(§2) 1.4.9. […] After incubation, cells were washed three times with cold PBS prior to counting on an automated gamma counter (1282 Compugamma CS, Pharmacia/LKBNuclear, Inc., Gaithersburg, Md.). […] Mean fluorescence intensity values were correlated with % incubated dose (% ID) uptake. All the cell uptake studies were performed in triplicate for each cell line and repeated three times.

For another data set, the target named is T5, PD-L1 in MDAMB231 cells (Homo sapiens, UniProt Q9NZQ7).
T5 construct: MDAMB231 breast cancer cells, which naturally express PD-L1; endogenous in cells; host or cells: MDAMB231 (ATCC)
T5 sequence (Q9NZQ7 19-290): as above
Briefly: In vitro binding of [64Cu]WL12 to MDAMB231 and SUM149 cells. To be noted: 1 h incubation. The data set is classed as cell-based. The protocol: as §2

Data set [5] concerns the target T6, PD-L1 in MDAMB231 tumors (Homo sapiens, UniProt Q9NZQ7).
T6 construct: MDAMB231 breast cancer cells, which naturally express PD-L1; endogenous in cells; host or cells: MDAMB231 (ATCC); as xenografts in NSG mice for the in vivo units
Briefly: Tumor PD-L1 engagement by PD-L1 mAbs measured with [64Cu]WL12, MDAMB231 xenografts. It counts as in vivo. As to conditions: AtzMab 20 mg/kg, AveMab 10 mg/kg, DurMab 10 mg/kg, 24 h prior to tracer.

Data set [6] addresses T7, PD-L1 in HCC827, H226, hPD-L1 and MDAMB231 cells (Homo sapiens, UniProt Q9NZQ7).
T7 construct: Each of which naturally expresses PD-L1; endogenous in cells; host or cells: HCC827, H226, MDAMB231 (endogenous) and CHO-hPD-L1 (stably transfected)
Briefly: [64Cu]WL12 binding to PD-L1-positive cells in the presence of 60 nM mAbs. It counts as cell-based. To be noted: 60 nM mAb vs PBS control. As for the experimental part: Non-interacting residues are shown in gray. […] Mean fluorescence intensities were determined by flow cytometry.
HCC827 and H226 non-small cell lung cancer (NSCLC) cells also were tested.

Data set [7] has as its target T6, PD-L1 in MDAMB231 tumors. Briefly: Tumor PD-L1 engagement by PD-L1 mAbs measured with [64Cu]WL12, MDAMB231 xenografts. The data set is classed as in vivo. As to conditions: mAb 24 h prior, 120 min after tracer injection, ex vivo. The protocol: To evaluate the effect of dose on tumor PD-L1 occupancy at the tumor, mice bearing MDAMB231 tumors were injected with escalating doses of AtzMab from 0.009 to 24 mg/kg body weight.

Data set [8] concerns the target T8, PD-L1 in human NSCLC and TNBC xenografts (Homo sapiens, UniProt Q9NZQ7).
T8 construct: host or cells: MDAMB231, SUM149 (TNBC), H2444, H1155 (NSCLC) xenografts in mice
As to conditions: in vivo; cited from earlier work.

Setting [9] is: mouse, in vivo, iv, 40 uCi, 1 h.

T1 sequence (Q9NZQ7 19-290): as above
T6 sequence (Q9NZQ7 19-290): as above
T8 sequence (Q9NZQ7 19-290): as above
T7 sequence (Q9NZQ7 19-290): as above

The term tissue uptake denotes the percentage of the injected dose found per gram of tissue. In the case of `CCCC[C@H]1C(=O)N(C)[C@@H](CCCC)C(=O)N[C@@H](CCCNC(=O)CCC(C(=O)O)N2CCN(CC(=O)O)CCN(CC(=O)O)CCN(CC(=O)O)CC2)C(=O)N[C@H](C(=O)NCC(N)=O)CSCC(=O)N[C@@H](Cc2ccc(O)cc2)C(=O)N(C)[C@@H](C)C(=O)N[C@@H](CC(N)=O)C(=O)N2CCC[C@H]2C(=O)N[C@@H](Cc2c[nH]cn2)C(=O)N[C@@H](CC(C)C)C(=O)N2C[C@H](O)C[C@H]2C(=O)N[C@@H](Cc2c[nH]c3ccccc23)C(=O)N[C@@H](CO)C(=O)N[C@@H](Cc2cn(C)c3ccccc23)C(=O)N1C` (single isomer, unassigned) [[^64Cu]WL12, metal not drawn], at hPD-L1 tumors [1] (co-injected excess WL12 (50 μg, 2 mg/kg), 2 h), the “reduction in % ID/g values in hPD-L1 tumors” value is listed as greater than 75%. Also, on hPD-L1 tumors [1] (co-injected excess WL12, 2 h), the “change of uptake in control CHO tumors with blocking dose” value is given as “no significant difference”. In addition, on hPD-L1 tumors [1] (inferred from low uptake in spleen, thymus, brown fat), the “affinity for mouse PD-L1” value is reported as “very low or no affinity”. In addition, the tumor-to-blood ratio in the data set with hPD-L1 tumors [1] (setting [9]) is 4.7±1.2. Besides, the tumor-to-muscle ratio with hPD-L1 tumors [1] (setting [9]) was 25.6±1.9. Moreover, the tissue uptake at 1 h in the data set “in vivo” (control CHO tumor) was found to be 4 ± 0.6 %ID/g; in “in vivo” (hPD-L1 tumors), 14.9 ± 0.8 %ID/g; in “in vivo” (kidneys), 34.4 ± 3.1 %ID/g; in “in vivo” (liver) it was 24.2 ± 2.5 %ID/g. The “accumulation in A549-iPDL1 tumors higher than in A549 control tumors” value in data set [2] is on record as 65%. Further, the “increase in radioactivity uptake, doxycycline treated vs. untreated cells” value in [3] (A549-iPDL1 cells) is on record as 5.5 fold. Further, on hPD-L1 tumors [4] (150 μCi i.v.), the “time of increased uptake in hPD-L1 tumors, PET” value was “as early as 10 min and retained through 24 h post-injection”. The “uptake in hPD-L1 tumor compared to CHO tumor, PET-CT” value on hPD-L1 tumors [4] (24 h after injection) was “Increased uptake”. On PD-L1 in hPD-L1 cells (hPD-L1, MDAMB231, SUM149, CHO cells), the “correlation (r) of mean fluorescence intensity with uptake of radioactivity” value was 0.9977. Further, at PD-L1 in hPD-L1 cells (hPD-L1 cells, 1 μM blocking dose of WL12), the “reduction in bound [64Cu]WL12” value is given as greater than 95%. On PD-L1 in hPD-L1 cells (hPD-L1 cells, 1 h incubation), the “increase in bound radioactivity compared to negative control CHO cells” value amounted to 43 fold. The “uptake of the incubated dose” value on PD-L1 in hPD-L1 cells (hPD-L1 cells, 1 h incubation) is greater than 50%. In addition, the “uptake of radioactivity in MDAMB231 cells compared to SUM149 cells” value at PD-L1 in MDAMB231 cells is given as “Two-fold higher”.

As for “DurMab: FDA-approved PD-L1 mAb durvalumab”, the “[64Cu]WL12 uptake in MDAMB231 xenografts” value in the data set with PD-L1 in MDAMB231 tumors [5] is “significantly reduced”. Moreover, in [3] (60 nM mAb), the “decrease of [64Cu]WL12 binding to doxycycline-treated A549-iPDL1 cells” value stood at 65%. Moreover, the “[64Cu]WL12 binding to PD-L1-positive cells” value in data set [6] is on record as “inhibited”. For the same molecule, the “less uptake of [64Cu]WL12 in tumors vs saline controls” value with PD-L1 in MDAMB231 tumors [7] was “approximately 60%”.

Consider “[^111In]AtzMab: 111In-radiolabeled atezolizumab”, for which, in data set [8], the “uptake in PD-L1high H2444 vs PD-L1low H1155 NSCLC xenografts” value is “Increased uptake” and the “uptake in PD-L1high MDAMB231 vs PD-L1low SUM149 TNBC xenografts” value is listed as “Increased uptake”.
